EC50 data for 27 compounds are collected here from patent publication US11000491B2, “Amino-aryl-benzamide compounds and methods of use thereof” (HEPANOVA, INC., priority 2017, dated 2021).

As usually defined, the EC50 is the concentration that produces a half-maximal response.

Type in all cases: cell-based
One experiment relates to Huh7 cells. Description: LD content in Huh7 cells pre-treated with insulin, Oil-Red-O staining, absorbance OD 540 nm. Conditions: procedure of Example 3, read-out: LD content inhibition (EC50). In a few lines: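 Huh7 cells, mock-treated or pre-treated with 1 mM insulin, were then exposed to compound at the indicated amounts. Lipid droplets stained with Oil Red O and quantified by absorbance at OD 540 nm.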

The subject of a further experiment is SREBP-1. The experiment can be described thus: SREBP-1 expression in cultured primary human hepatocytes. The note with it: procedure of Example 6, read-out: SREBP-1 mRNA inhibition (EC50). Summed up:
(§1)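 Primary human hepatocytes in culture exposed to a range of HPN-01 derivative concentrations; SREBP-1 and SREBP-2 mRNA expression then measured to assess inhibition.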

The test system of a further experiment is SREBP-2. The experiment can be described thus: SREBP-2 expression in cultured primary human hepatocytes. Conditions: procedure of Example 6, read-out: SREBP-2 mRNA inhibition (EC50). Summed up:
as §1

[1] abbreviates: Homo sapiens, Huh-7, Huh7 cells.

Read-outs that look alike come from different tables or passages of the source.

As for `NC(=O)c1cc(-c2ccc(Br)cc2)cc(-c2ccc(OP(=O)(O)O)cc2)c1N` [HPN-01416, 6′-amino-4″-bromo-5′-carbamoyl-[1,1′:3′,1″-terphenyl]-4-yl dihydrogen phosphate], the results for the EC50 with Huh7 cells (setting [1]), in the experiment with SREBP-1 (Hepatocyte) and with SREBP-2 (Hepatocyte) were 1510 nM, 3020 nM and 4010 nM, respectively.

For the compound `CC(=O)Nc1c(C(N)=O)cc(-c2ccc(Cl)cc2)cc1-c1ccc(S(N)(=O)=O)cc1` [HPN-01501, 4′-acetamido-4-chloro-4″-sulfamoyl-[1,1′:3′,1″-terphenyl]-5′-carboxamide], the EC50 was 1670 nM in the experiment on Huh7 cells (setting [1]); 5040 nM with SREBP-1 (Homo sapiens, Hepatocyte); 8550 nM with SREBP-2 (Homo sapiens, Hepatocyte).

Regarding `NC(=O)c1cc(/C=C/c2ccccc2Cl)cc(-c2ccc(S(N)(=O)=O)cc2)c1N` [HPN-01108, (E)-2-amino-5-(2-chlorostyryl)-4′-sulfamoyl-[1,1′-biphenyl]-3-carboxamide], the EC50 in the experiment on Huh7 cells (setting [1]) was 550 nM; with SREBP-1 (Homo sapiens, Hepatocyte), 2590 nM; in the experiment with SREBP-2 (Homo sapiens, Hepatocyte), 4670 nM.

With `CCCC(=O)Oc1cccc(/C=C/c2cc(C(N)=O)c(N)c(-c3ccc(S(N)(=O)=O)cc3)c2)c1` [HPN-01111, (E)-3-(2-(6-amino-5-carbamoyl-4′-sulfamoyl-[1,1′-biphenyl]-3-yl)vinyl)phenyl butyrate], the EC50 in the experiment with Huh7 cells (setting [1]) was found to be 750 nM; in the experiment with SREBP-1 (Homo sapiens, Hepatocyte) it was 2080 nM; in the experiment with SREBP-2 (Homo sapiens, Hepatocyte), 2440 nM.

Turning to `NC(=O)c1cc(C#CCO)cc(-c2ccc(S(N)(=O)=O)cc2)c1N` [HPN-01201, 2-amino-5-(3-hydroxyprop-1-ynyl)-4′-sulfamoylbiphenyl-3-carboxamide], the EC50 is 1200 nM with Huh7 cells (setting [1]); 3160 nM in the experiment with SREBP-1 (Homo sapiens, Hepatocyte); 6850 nM in the experiment with SREBP-2 (Homo sapiens, Hepatocyte).

As for `NC(=O)c1cc(C#CCOC(=O)c2ccccc2Br)cc(-c2ccc(S(N)(=O)=O)cc2)c1N` [HPN-01211, 3-(6-amino-5-carbamoyl-4′-sulfamoyl-[1,1′-biphenyl]-3-yl)prop-2-yn-1-yl 2-bromobenzoate], the EC50 with Huh7 cells (setting [1]) was determined as 780 nM; with SREBP-1 (Homo sapiens, Hepatocyte) it was 3790 nM; in the experiment on SREBP-2 (Homo sapiens, Hepatocyte) it was 7140 nM.

In the case of `NC(=O)c1cc(-c2ccc(Cl)cc2)cc(-c2ccc(S(N)(=O)=O)cc2)c1NC(=O)C1CC1` [HPN-01503, 4-chloro-4′-(cyclopropanecarboxamido)-4″-sulfamoyl-[1,1′:3′,1″-terphenyl]-5′-carboxamide], the concentration giving a half-maximal response (EC50) was determined as 700 nM with Huh7 cells (setting [1]); 3940 nM with SREBP-1 (Homo sapiens, Hepatocyte); 6480 nM in the experiment with SREBP-2 (Homo sapiens, Hepatocyte).

For the compound `Nc1c(C(=O)NCc2ccc[nH]2)cc(-c2ccc(Cl)cc2)cc1-c1ccc(S(N)(=O)=O)cc1` [HPN-01629, N-((1H-pyrrol-2-yl)methyl)-4′-amino-4-chloro-4″-sulfamoyl-[1,1′:3′,1″-terphenyl]-5′-carboxamide], the EC50 worked out at 1370 nM with Huh7 cells (setting [1]); 2000 nM in the experiment on SREBP-1 (Homo sapiens, Hepatocyte); 8600 nM in the experiment with SREBP-2 (Homo sapiens, Hepatocyte).

`NC(=O)c1cc(-c2ccc(Cl)cc2)cc(-c2ccc(NC(=O)Nc3cccnc3)cc2)c1N` [HPN-01429, 4′-amino-4-chloro-4″-(3-(pyridin-3-yl)ureido)-[1,1′:3′,1″-terphenyl]-5′-carboxamide]: the EC50 in the experiment on Huh7 cells (setting [1]) amounted to 140 nM; in the experiment on SREBP-1 (Homo sapiens, Hepatocyte), 6690 nM; in the experiment on SREBP-2 (Homo sapiens, Hepatocyte) it was 3980 nM.

For `NC(=O)c1cc(-c2c[nH]c(Br)c2)cc(-c2ccc(S(N)(=O)=O)cc2)c1N` [HPN-01311, 2-amino-5-(5-bromo-1H-pyrrol-3-yl)-4′-sulfamoyl-[1,1′-biphenyl]-3-carboxamide], the EC50 in the experiment on Huh7 cells (setting [1]) was found to be 2020 nM; in the experiment on SREBP-1 (Homo sapiens, Hepatocyte), 3090 nM; in the experiment with SREBP-2 (Homo sapiens, Hepatocyte), 5590 nM.

For `CCCC(=O)Nc1cccc(/C=C/c2cc(C(N)=O)c(N)c(-c3ccc(S(N)(=O)=O)cc3)c2)c1` [HPN-01112, (E)-2-amino-5-(3-butyramidostyryl)-4′-sulfamoyl-[1,1′-biphenyl]-3-carboxamide], the EC50 in the experiment with Huh7 cells (setting [1]) came out at 650 nM; with SREBP-1 (Homo sapiens, Hepatocyte), 2030 nM; with SREBP-2 (Homo sapiens, Hepatocyte) it was 1360 nM.

`CNC(=O)c1cc(-c2ccc(Br)cc2)cc(-c2ccc(S(N)(=O)=O)cc2)c1N` [HPN-01602, 4′-amino-4-bromo-N-methyl-4″-sulfamoyl-[1,1′:3′,1″-terphenyl]-5′-carboxamide]: the EC50 in the experiment with Huh7 cells (setting [1]) amounted to 2320 nM; in the experiment on SREBP-1 (Homo sapiens, Hepatocyte), 3320 nM; in the experiment with SREBP-2 (Homo sapiens, Hepatocyte) it was 4730 nM.

For `N=C(N)Nc1ccc(-c2cc(-c3ccc(Cl)cc3)cc(C(N)=O)c2N)cc1` [HPN-01417, 4′-amino-4-chloro-4″-guanidino-[1,1′:3′,1″-terphenyl]-5′-carboxamide], the EC50 in the experiment with Huh7 cells (setting [1]) came to 1260 nM; with SREBP-1 (Homo sapiens, Hepatocyte), 3150 nM; in the experiment on SREBP-2 (Homo sapiens, Hepatocyte), 4920 nM.

Consider `CC(C)NC(=O)Nc1ccc(-c2cc(-c3ccc(Cl)cc3)cc(C(N)=O)c2N)cc1` [HPN-01430, 4′-amino-4-chloro-4″-(3-isopropylureido)-[1,1′:3′,1″-terphenyl]-5′-carboxamide], for which the half-maximal effective concentration (EC50) in the experiment on Huh7 cells (setting [1]) was determined as 5360 nM; with SREBP-1 (Homo sapiens, Hepatocyte), 1880 nM; in the experiment on SREBP-2 (Homo sapiens, Hepatocyte), 4370 nM.

As for `NC(=O)c1cc(-c2ccc(Cl)cc2)cc(Oc2cccc(S(=O)(=O)NCCO)c2)c1N` [HPN-01422, 4-amino-4′-chloro-5-(3-(N-(2-hydroxyethyl)sulfamoyl)phenoxy)-[1, 1′-biphenyl]-3-carboxamide], the EC50 in the experiment on Huh7 cells (setting [1]) was found to be 1440 nM; in the experiment on SREBP-1 (Homo sapiens, Hepatocyte), 1520 nM; in the experiment with SREBP-2 (Homo sapiens, Hepatocyte), 3930 nM.

`NC(=O)c1cc(-c2ccc(Cl)cc2)cc(Oc2cccc(-c3nn[nH]n3)c2)c1N` [HPN-01410, 5-(3-(2H-tetrazol-5-yl)phenoxy)-4-amino-4′-chloro-[1,1′-biphenyl]-3-carboxamide]: the EC50 with Huh7 cells (setting [1]) stood at 580 nM; in the experiment on SREBP-1 (Homo sapiens, Hepatocyte), 2090 nM; with SREBP-2 (Homo sapiens, Hepatocyte) it was 4080 nM.

In the case of `NC(=O)c1cc(-c2ccc(Cl)cc2)cc(-c2ccc(S(N)(=O)=O)cc2)c1NCCc1ccccc1` [HPN-01534, 4-chloro-4′-(phenethylamino)-4″-sulfamoyl-[1,1′:3′,1″-terphenyl]-5′-carboxamide], the EC50 in the experiment on Huh7 cells (setting [1]) amounted to 1110 nM; in the experiment on SREBP-1 (Homo sapiens, Hepatocyte), 2920 nM; in the experiment with SREBP-2 (Homo sapiens, Hepatocyte) it was 6790 nM.

For the compound `NCCC(=O)Oc1c(C(N)=O)cc(-c2ccc(Br)cc2)cc1-c1ccc(NC(N)=O)cc1` [HPN-01526, 4-bromo-5′-carbamoyl-4″-ureido-[1,1′:3′,1″-terphenyl]-4′-yl 3-aminopropanoate], the EC50 with Huh7 cells (setting [1]) turned out to be 1150 nM; in the experiment with SREBP-1 (Homo sapiens, Hepatocyte) it was 1630 nM; with SREBP-2 (Homo sapiens, Hepatocyte) it was 3830 nM.

As to `NC(=O)c1cc(C#CCOC(=O)c2ccccc2F)cc(-c2ccc(S(N)(=O)=O)cc2)c1N` [HPN-01213, 3-(6-amino-5-carbamoyl-4′-sulfamoyl-[1,1′-biphenyl]-3-yl)prop-2-yn-1-yl 2-fluorobenzoate], the EC50 in the experiment on Huh7 cells (setting [1]) was 1290 nM; in the experiment with SREBP-1 (Homo sapiens, Hepatocyte) it was 4550 nM; in the experiment on SREBP-2 (Homo sapiens, Hepatocyte) it was 4880 nM.

Consider `NC(=O)c1cc(-c2ccc(Cl)cc2)cc(-c2ccc(S(N)(=O)=O)cc2)c1NC(=O)CCO` [HPN-01516, 4-chloro-4′-(3-hydroxypropanamido)-4″-sulfamoyl-[1, 1′:3′,1″-terphenyl]-5′-carboxamide], for which the concentration for a half-maximal effect (EC50) with Huh7 cells (setting [1]) was found to be 1100 nM; with SREBP-1 (Homo sapiens, Hepatocyte) it was 1910 nM; in the experiment on SREBP-2 (Homo sapiens, Hepatocyte), 2070 nM.

As for `NC(=O)c1cc(Nc2cccc(Cl)c2)cc(-c2ccc(S(N)(=O)=O)cc2)c1N` [HPN-01315, 2-amino-5-((3-chlorophenyl)amino)-4′-sulfamoyl-[1,1′-biphenyl]-3-carboxamide], the EC50 is 2610 nM in the experiment with Huh7 cells (setting [1]); 7720 nM in the experiment on SREBP-1 (Homo sapiens, Hepatocyte); 14000 nM in the experiment on SREBP-2 (Homo sapiens, Hepatocyte).

“(E)-2-amino-5-(3-((4-methoxyphenyl)amino)-3-oxoprop-1-en-1-yl)-4′-sulfamoyl-[1,1′-biphenyl]-3-carboxamide [HPN-01128]”: the EC50 was determined as 890 nM in the experiment with Huh7 cells (Huh7 cells), 2400 nM in the experiment with SREBP-1 and 3470 nM with SREBP-2.

In the case of `NC(=O)c1cc(-c2ccc(Br)cc2)cc(-c2ccc(S(N)(=O)=O)cc2)c1NC(=O)CCO` [HPN-01513, 4-bromo-4′-(3-hydroxypropanamido)-4″-sulfamoyl-[1, 1′:3′,1″-terphenyl]-5′-carboxamide], the EC50 with Huh7 cells (setting [1]) is 680 nM; with SREBP-1 (Homo sapiens, Hepatocyte), 1630 nM; in the experiment with SREBP-2 (Homo sapiens, Hepatocyte), 2880 nM.

With `NC(=O)c1cc(/C=C/C(=O)O)cc(-c2ccc(S(N)(=O)=O)cc2)c1N` [HPN-01113, (E)-3-(6-amino-5-carbamoyl-4′-sulfamoyl-[1,1′-biphenyl]-3-yl)acrylic acid], the EC50 with Huh7 cells (setting [1]) stood at 330 nM; in the experiment on SREBP-1 (Homo sapiens, Hepatocyte), 690 nM; in the experiment with SREBP-2 (Homo sapiens, Hepatocyte), 970 nM.

Regarding `NC(=O)Nc1ccc(-c2cc(-c3ccc(Cl)cc3)cc(C(N)=O)c2NC(=O)CCO)cc1` [HPN-01520, 4-chloro-4′-(3-hydroxypropanamido)-4″-ureido-[1,1′:3′,1″-terphenyl]-5′-carboxamide], the EC50 came out at 2510 nM in the experiment with Huh7 cells (setting [1]); 3010 nM with SREBP-1 (Homo sapiens, Hepatocyte); 4450 nM with SREBP-2 (Homo sapiens, Hepatocyte).

For `Nc1c(C(=O)Nc2cc[nH]c2)cc(-c2ccc(Cl)cc2)cc1-c1ccc(S(N)(=O)=O)cc1` [HPN-01628, 4′-amino-4-chloro-N-(1H-pyrrol-3-yl)-4″-sulfamoyl-[1,1′:3′,1″-terphenyl]-5′-carboxamide], the EC50 in the experiment on Huh7 cells (setting [1]) worked out at 1160 nM; in the experiment with SREBP-1 (Homo sapiens, Hepatocyte), 2390 nM; in the experiment on SREBP-2 (Homo sapiens, Hepatocyte) it was 5480 nM.

`NC(=O)c1cc(-c2ccc(Cl)cc2)cc(-c2ccc(S(N)(=O)=O)cc2)c1NCc1cccc(Cl)c1` [HPN-01532, 4-chloro-4′-((3-chlorobenzyl)amino)-4″-sulfamoyl-[1,1′:3′,1″-terphenyl]-5′-carboxamide]: the EC50 stood at 1150 nM in the experiment on Huh7 cells (setting [1]); 2690 nM with SREBP-1 (Homo sapiens, Hepatocyte); 8600 nM in the experiment on SREBP-2 (Homo sapiens, Hepatocyte).
